The values that follow are results of earlier work, collected in patent US6833085B2, “Agent for restricting elution of phosphorus, method for producing the same, and method of restricting elution of phosphorus in sludge” (priority 2003, dated 2004).

Read-outs that look alike come from different tables or passages of the source.

For the data set the following is noted: for Amount of diluted phosphorus: aqueous solution added into sludge.

Regarding `O=[N+]([O-])[O-].O=[N+]([O-])[O-].[Ca+2]` [Calcium nitrate, calcium nitrate], the “Amount of diluted phosphorus” value was 67 µg/L (concentration 0.35%) and 13 µg/L (concentration 0.70%). Besides, for the setting “injecting a 0.7% aqueous solution”, the “Inhibition of elution of phosphorus” value was 98%.

For the molecule `[Cl][Fe]([Cl])[Cl]` [Ferric chloride, ferric chloride], the “Amount of diluted phosphorus” value is 234 µg/L (concentration 0.16%) and 402 µg/L (concentration 0.32%).

On to alum, for which the “Amount of diluted phosphorus” value by setting is: (concentration 0.21%) 407 µg/L; (concentration 0.42%) 490 µg/L.
